Measurements from US20090068290A1, “BIFEPRUNOX DOSES FOR TREATING SCHIZOPHRENIA” (priority 2006, published 2009).

How the values were obtained:
[1] = system: adult subjects with schizophrenia; assay: CGI Improvement score, Clinical Study One; type: in vivo, human; parameters: Actual Value of CGI Improvement Score, Median / CGI Improvement Score, Trt Effect: scale not given here
Experimental: There were five treatment groups in this study. […] Study medication was administered once daily. After Baseline measurements were performed, the titration phase was begun. Bifeprunox treated subjects were titrated up to 5 mg, 10 mg or 20 mg according to a standardized titration schedule (Day 1: 0.125 mg, Day 2: 0.25 mg, Day 3: 0.5 mg, Day 4: 1.0 mg, Day 5: 2.0 mg, Day 6: 5.0 mg, Day 7: 10.0 mg, Day 8: 20 mg). When the assigned dose was reached, subjects were maintained at that dose for the remainder of the six-week treatment period.
The change in the Positive and Negative Symptom Scale (PANSS) total score, from baseline to endpoint, was the primary outcome measure. Secondary efficacy measures included: PANSS positive, PANSS negative, PANSS general psychopathology (GPP) score, PANSS-derived Brief Psychiatric Rating Scale (BPRS) score, Clinical Global Impressions-Severity of Illness (CGI-S), CGI-Improvement (CGI-I) scores, and responder rates. Safety and tolerability evaluations included extrapyramidal symptoms (EPS), weight gain, lipid profile, and serum prolactin.

[2] = Body weight, Clinical Study One; type: in vivo, human
Experimental: Statistical testing of the change from Baseline in weight was performed using similar methodology to that used for the secondary efficacy parameters (an ANCOVA model with factors for treatment and weight at Baseline). Pairwise comparisons of the bifeprunox treatment groups versus placebo were all statistically significant (bifeprunox 5 mg [p=0.025], bifeprunox 10 mg [p=0.009] and bifeprunox 20 mg [p=0.031] for the difference between bifeprunox and placebo mean change from Baseline in weight at Endpoint.

[3] = system: adult subjects with schizophrenia; assay: BPRS total score, Clinical Study Two; type: in vivo, human; conditions: for Change from Baseline in BPRS Total Score, Mean (SD) / Change from Baseline in BPRS Total Score, Median / Change from Baseline in BPRS Total Score, Trt Effect (bifeprunox—placebo) / mean change (SD) from Baseline to Endpoint in BPRS total score: LOCF; for Change from Baseline in BPRS Total Score, Mean (SD) / Change from Baseline in BPRS Total Score, Median / Change from Baseline in BPRS Total Score, Trt Effect (bifeprunox—placebo): ITT population; for BPRS total score, treatment effect (bifeprunox—placebo): Endpoint LOCF; for mean change (SD) from Baseline to Endpoint in BPRS total score: ITT
Experimental: Rating scale assessments were performed weekly, except for week 5, to measure the change from baseline to endpoint of the PANSS total score. Other assessments included: PANSS positive symptom subscale score, PANSS negative symptom subscale score, PANSS general pschopathology subscale score, BPRS total score, BPRS psychosis score, the CGI-S score, the CGI-I score, responder rates based on the PANSS total score, and the Calgary Depression Scale for Schizophrenia (CDSS). […]
Subjects who completed this study had the option to continue in the long-term. […] Blood samples were also obtained at Screening/Baseline, Week 3, and Week 6 for clinical laboratory assessments.

[4] = system: adult subjects with schizophrenia; assay: PANSS responder rates, Clinical Study Three; type: in vivo, human; conditions: for PANSS 20% definition response rate No, % / PANSS 20% definition response rate Yes, %: Week 6/Endpoint, LOCF; for 20% PANSS responder rate: Endpoint LOCF
Experimental: There were four treatment arms in this study, approximately 144 subjects per arm. […] After completing the Single-Blind Placebo Lead-in Period of at least three days, bifeprunox-treated subjects were titrated from 0.25 mg up to 20 mg/day or 30 mg/day according to a standardized titration scheme over a seven- or eight-day period, respectively. When the assigned dose was reached, subjects were maintained at that dose for the remainder of the six week treatment period. […] Subjects were hospitalized (if not already inpatients) after eligibility for study entry was verified, starting from the Screening Visit until at least 10 days after Baseline. Subjects could be hospitalized longer than 10 days if considered medically necessary by the Investigator. Rating scale assessments for efficacy and abnormal movement disorders were done weekly except for Week 5. Safety assessments were performed at Screening, during treatment and at the end of the study. Subject satisfaction with study medication was assessed at Week 6. Samples of whole blood were obtained at Weeks 2, 4, and 6 for determination of bifeprunox in plasma.
CLINICAL STUDY THREE. A PANSS responder was defined as a subject whose PANSS total score decreased by 20% or more from Baseline to Endpoint. As exploratory analyses, responder rates were also analyzed using a 30%, 35%, 40%, and 50% definition of responder.

[5] = Clinical laboratory assessments (prolactin), Clinical Study Three; conditions: bifeprunox 20, 30 mg; 6 weeks
Text: To assess the safety and tolerability of bifeprunox using physical examination, weight, waist circumference, vital signs (pulse rate and systolic/diastolic blood pressure [BP], and oral temperature), 12-lead electrocardiogram (ECG), clinical laboratory assessments (hematology, biochemistry including fasting insulin level, fasting glucose, fasting lipid profile, urinalysis, special laboratory assessments for prolactin, IGF-1, IGFBP-3, and thyroid function), need for anticholinergic treatment during double-blind treatment period, concomitant medication use, adverse event (AE) monitoring, and assessments of abnormal movement including the Simpson-Angus Scale (SAS), Barnes Akathisia Scale (BAS), and Abnormal Involuntary Movement Scale (AIMS).

[6] = Bifeprunox 30 mg, Week 6/Endpoint
[7] = Bifeprunox 40 mg, Week 6/Endpoint

O=c1[nH]c2cccc(N3CCN(Cc4cccc(-c5ccccc5)c4)CC3)c2o1 [Bifeprunox, 7-[4-([1,1′-biphenyl]-3-ylmethyl)-1-piperazinyl]-2(3H)-benzoxazolone]
CGI Improvement Score, Trt Effect ([1]; 5 mg versus placebo, Endpoint LOCF): −0.28
Actual Value of CGI Improvement Score, Mean (S.D.) ([1]; 5 mg, Endpoint LOCF): 3.33 (1.37)
Actual Value of CGI Improvement Score, Median ([1]; 5 mg, Endpoint LOCF): 3.0
Actual Value of CGI Improvement Score, Mean (S.D.) ([1]; 5 mg, Week 1, LOCF): 3.76 (0.85)
Actual Value of CGI Improvement Score, Median ([1]; 5 mg, Week 1, LOCF): 4.0
Actual Value of CGI Improvement Score, Mean (S.D.) ([1]; 5 mg, Week 2, LOCF): 3.46 (1.10)
Actual Value of CGI Improvement Score, Median ([1]; 5 mg, Week 2, LOCF): 3.0
Actual Value of CGI Improvement Score, Mean (S.D.) ([1]; 5 mg, Week 3, LOCF): 3.2 (1.27)
Actual Value of CGI Improvement Score, Median ([1]; 5 mg, Week 3, LOCF): 3.0
Actual Value of CGI Improvement Score, Mean (S.D.) ([1]; 5 mg, Week 4, LOCF): 3.37 (1.35)
Actual Value of CGI Improvement Score, Median ([1]; 5 mg, Week 4, LOCF): 3.0
CGI Improvement Score, Trt Effect ([1]; 10 mg versus placebo, Endpoint LOCF): 0.28
Actual Value of CGI Improvement Score, Mean (S.D.) ([1]; 10 mg, Endpoint LOCF): 3.90 (1.39)
Actual Value of CGI Improvement Score, Median ([1]; 10 mg, Endpoint LOCF): 4.0
Actual Value of CGI Improvement Score, Mean (S.D.) ([1]; 10 mg, Week 1, LOCF): 3.88 (1.00)
Actual Value of CGI Improvement Score, Median ([1]; 10 mg, Week 1, LOCF): 4.0
Actual Value of CGI Improvement Score, Mean (S.D.) ([1]; 10 mg, Week 2, LOCF): 3.71 (1.23)
Actual Value of CGI Improvement Score, Median ([1]; 10 mg, Week 2, LOCF): 4.0
Actual Value of CGI Improvement Score, Mean (S.D.) ([1]; 10 mg, Week 3, LOCF): 3.79 (1.32)
Actual Value of CGI Improvement Score, Median ([1]; 10 mg, Week 3, LOCF): 4.0
Actual Value of CGI Improvement Score, Mean (S.D.) ([1]; 10 mg, Week 4, LOCF): 3.86 (1.35)
Actual Value of CGI Improvement Score, Median ([1]; 10 mg, Week 4, LOCF): 4.0
CGI Improvement Score, Trt Effect ([1]; 20 mg versus placebo, Endpoint LOCF): −0.21
Actual Value of CGI Improvement Score, Mean (S.D.) ([1]; 20 mg, Endpoint LOCF): 342 (1.30)
Actual Value of CGI Improvement Score, Median ([1]; 20 mg, Endpoint LOCF): 3.0
Actual Value of CGI Improvement Score, Mean (S.D.) ([1]; 20 mg, Week 1, LOCF): 3.54 (0.99)
Actual Value of CGI Improvement Score, Median ([1]; 20 mg, Week 1, LOCF): 4.0
Actual Value of CGI Improvement Score, Mean (S.D.) ([1]; 20 mg, Week 2, LOCF): 3.30 (114)
Actual Value of CGI Improvement Score, Median ([1]; 20 mg, Week 2, LOCF): 3.0
Actual Value of CGI Improvement Score, Mean (S.D.) ([1]; 20 mg, Week 3, LOCF): 3.31 (1.19)
Actual Value of CGI Improvement Score, Median ([1]; 20 mg, Week 3, LOCF): 3.0
Actual Value of CGI Improvement Score, Mean (S.D.) ([1]; 20 mg, Week 4, LOCF): 3.35 (1.29)
Actual Value of CGI Improvement Score, Median ([1]; 20 mg, Week 4, LOCF): 3.0
mean weight change at Endpoint ([2]; bifeprunox 5 mg): −1.0 lb
subjects whose weight decreased by more than 7% ([2]; bifeprunox 5 mg): 6%
mean weight change at Endpoint ([2]; bifeprunox 10 mg): −1.3 lb
subjects whose weight decreased by more than 7% ([2]; bifeprunox 10 mg): 7%
mean weight change at Endpoint ([2]; bifeprunox 20 mg): −0.6 lbs
subjects whose weight decreased by more than 7% ([2]; bifeprunox 20 mg): 8%
body weight (in words) ([2]; bifeprunox groups, 6 weeks): Mild weight loss
weight compared to placebo ([2]; bifeprunox, 6 weeks (Example 4)): statistically significant (P<0.05) weight decrease
Change from Baseline in BPRS Total Score, Mean (SD) ([3]; Bifeprunox 30 mg, Week 1): −3.8 (7.0)
Change from Baseline in BPRS Total Score, Median ([3]; Bifeprunox 30 mg, Week 1): −3
Change from Baseline in BPRS Total Score, Mean (SD) ([3]; Bifeprunox 30 mg, Week 2): −7.0 (9.5)
Change from Baseline in BPRS Total Score, Median ([3]; Bifeprunox 30 mg, Week 2): −6
Change from Baseline in BPRS Total Score, Mean (SD) ([3]; Bifeprunox 30 mg, Week 3): −7.93 (10.7)
Change from Baseline in BPRS Total Score, Median ([3]; Bifeprunox 30 mg, Week 3): −6
Change from Baseline in BPRS Total Score, Mean (SD) ([3]; Bifeprunox 30 mg, Week 4): −8.2 (11.5)
Change from Baseline in BPRS Total Score, Median ([3]; Bifeprunox 30 mg, Week 4): −7
Change from Baseline in BPRS Total Score, Mean (SD) [3, 6]: −8.1 (12.3)
Change from Baseline in BPRS Total Score, Median [3, 6]: −7
Change from Baseline in BPRS Total Score, Trt Effect (bifeprunox—placebo) [3, 6]: −3.2
Change from Baseline in BPRS Total Score, Mean (SD) ([3]; Bifeprunox 40 mg, Week 1): −4.3 (7.1)
Change from Baseline in BPRS Total Score, Median ([3]; Bifeprunox 40 mg, Week 1): −4
Change from Baseline in BPRS Total Score, Mean (SD) ([3]; Bifeprunox 40 mg, Week 2): −5.5 (9.3)
Change from Baseline in BPRS Total Score, Median ([3]; Bifeprunox 40 mg, Week 2): −6
Change from Baseline in BPRS Total Score, Mean (SD) ([3]; Bifeprunox 40 mg, Week 3): −6.3 (10.3)
Change from Baseline in BPRS Total Score, Median ([3]; Bifeprunox 40 mg, Week 3): −6
Change from Baseline in BPRS Total Score, Mean (SD) ([3]; Bifeprunox 40 mg, Week 4): −5.7 (10.9)
Change from Baseline in BPRS Total Score, Median ([3]; Bifeprunox 40 mg, Week 4): −4
Change from Baseline in BPRS Total Score, Mean (SD) [3, 7]: −6.5 (11.7)
Change from Baseline in BPRS Total Score, Median [3, 7]: −5
Change from Baseline in BPRS Total Score, Trt Effect (bifeprunox—placebo) [3, 7]: −1.9
BPRS total score, treatment effect (bifeprunox—placebo) ([3]; bifeprunox 30 mg): −3.2
mean change (SD) from Baseline to Endpoint in BPRS total score ([3]; bifeprunox 30 mg): −8.1 (12.3)
BPRS total score, treatment effect (bifeprunox—placebo) ([3]; bifeprunox 40 mg): −1.9
mean change (SD) from Baseline to Endpoint in BPRS total score ([3]; bifeprunox 40 mg): −6.5 (11.7)
PANSS 20% definition response rate No, % ([4]; 20 mg): 58%
PANSS 20% definition response rate Yes, % ([4]; 20 mg): 42%
PANSS 20% definition response rate No, % ([4]; 30 mg): 61%
PANSS 20% definition response rate Yes, % ([4]; 30 mg): 39%
20% PANSS responder rate ([4]; bifeprunox 20 mg): 42%
20% PANSS responder rate ([4]; bifeprunox 30 mg): 39%
prolactin [5]: a decrease in prolactin
